According to PubChem BioAssay (NCI):
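All cell lines were grown in 96-well plates and treated with compound for 48 hours. At the GI50, growth is halved. At the TGI there is no net growth.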

Columns and labels:
Assay in all cases: NCI-60 cell line screen, 48 h; in the data active = GI50 below about 0.43 µM; inactive = the rest
[1] = test system: OVCAR-4 ovarian
[2] = test system: SN12C renal
[3] = test system: OVCAR-8 ovarian
[4] = test system: RXF 393 renal
[5] = test system: OVCAR-3 ovarian
[6] = test system: HCC-2998 colon
[7] = test system: HT29 colon
[8] = test system: K-562 leukemia
[9] = test system: NCI-H460 lung
[10] = test system: SK-MEL-5 melanoma
[11] = test system: 786-0 renal
[12] = test system: MALME-3M melanoma
[13] = test system: UACC-257 melanoma
[14] = test system: OVCAR-5 ovarian
[15] = test system: UO-31 renal
[16] = test system: CCRF-CEM leukemia
[17] = test system: T-47D breast
[18] = test system: NCI-H522 lung
[19] = test system: MCF7 breast
[20] = test system: PC-3 prostate
[21] = test system: A498 renal
[22] = test system: ACHN renal
[23] = test system: HCT-116 colon
[24] = test system: NCI-H226 lung
[25] = test system: MDA-MB-231 breast
[26] = test system: SR leukemia
[27] = test system: COLO 205 colon
[28] = test system: SK-MEL-28 melanoma
[29] = test system: SK-MEL-2 melanoma
[30] = test system: NCI/ADR-RES ovarian
[31] = test system: U251 CNS
[32] = test system: SNB-19 CNS
[33] = test system: UACC-62 melanoma
[34] = test system: HS 578T breast
[35] = test system: RPMI-8226 leukemia
[36] = test system: A549 NSCLC
[37] = test system: KM12 colon
[38] = test system: HOP-92 NSCLC
[39] = test system: TK-10 renal
[40] = test system: SW-620 colon
[41] = test system: IGROV1 ovarian
[42] = test system: MDA-MB-435
[43] = test system: CAKI-1 renal
[44] = test system: SF-295 CNS
[45] = test system: DU-145 prostate
[46] = test system: BT-549 breast
[47] = test system: SF-539 CNS
[48] = test system: SK-OV-3 ovarian
[49] = test system: HOP-62 NSCLC
[50] = test system: HCT-15 colon
[51] = test system: M14 melanoma
[52] = test system: LOX IMVI melanoma
[53] = test system: NCI-H23 lung
[54] = test system: HL-60(TB) leukemia
[55] = test system: MOLT-4 leukemia
[56] = test system: SNB-75 CNS
[57] = test system: SF-268 CNS

Cn1c(-c2ccncc2)c(-c2ccc(F)cc2)c2ncccc21
inactive: GI50 [1] > 25 µM | GI50 [2] > 25 µM | GI50 [3] > 25 µM | GI50 [4] > 25 µM | GI50 [5] > 25 µM | GI50 [6] > 25 µM | GI50 [7] > 25 µM | GI50 [8] > 25 µM | GI50 [9] > 25 µM | GI50 [10] > 25 µM | GI50 [11] > 25 µM | GI50 [12] > 25 µM | GI50 [13] > 25 µM | GI50 [14] > 25 µM | GI50 [15] 10.8 µM | GI50 [16] > 25 µM | GI50 [17] > 25 µM | GI50 [18] > 25 µM | GI50 [19] > 25 µM | GI50 [20] > 25 µM | GI50 [21] > 14.4 µM | GI50 [22] 16.4 µM | GI50 [23] > 25 µM | GI50 [24] > 25 µM | GI50 [25] > 25 µM | GI50 [26] > 25 µM | GI50 [27] > 25 µM | GI50 [28] > 25 µM | GI50 [29] > 25 µM | GI50 [30] > 25 µM | GI50 [31] > 25 µM | GI50 [32] > 25 µM | GI50 [33] > 25 µM | GI50 [34] > 25 µM | GI50 [35] > 25 µM | GI50 [36] > 25 µM | GI50 [37] > 25 µM | GI50 [38] 7.39 µM | GI50 [39] 16.4 µM | GI50 [40] > 25 µM | GI50 [41] > 23.1 µM | GI50 [42] > 25 µM | GI50 [43] > 25 µM | GI50 [44] > 25 µM | GI50 [45] > 25 µM | GI50 [46] > 25 µM | GI50 [47] > 25 µM | GI50 [48] > 25 µM | GI50 [49] > 25 µM | GI50 [50] > 25 µM | GI50 [51] > 25 µM | GI50 [52] > 25 µM | GI50 [53] > 25 µM | GI50 [54] > 25 µM | GI50 [55] > 25 µM | GI50 [56] > 25 µM | GI50 [57] > 25 µM
> 25 µM: TGI [1] | TGI [2] | TGI [3] | TGI [4] | TGI [5] | TGI [6] | TGI [7] | TGI [8] | TGI [9] | TGI [10] | TGI [11] | TGI [12] | TGI [13] | TGI [14] | TGI [15] | TGI [16] | TGI [17] | TGI [18] | TGI [19] | TGI [20] | TGI [21] | TGI [22] | TGI [23] | TGI [24] | TGI [25] | TGI [26] | TGI [27] | TGI [28] | TGI [29] | TGI [30] | TGI [31] | TGI [32] | TGI [33] | TGI [34] | TGI [35] | TGI [36] | TGI [37] | TGI [38] | TGI [39] | TGI [40] | TGI [41] | TGI [42] | TGI [43] | TGI [44] | TGI [45] | TGI [46] | TGI [47] | TGI [48] | TGI [49] | TGI [50] | TGI [51] | TGI [52] | TGI [53] | TGI [54] | TGI [55] | TGI [56] | TGI [57]
